43 molecules from patent publication US6787541B1, “Thieno-and furopyrimidine derivatives as A2A-receptor antagonists” (Vernalis Research Limited, priority 1999, dated 2004) can be followed below.

One may read the Ki as a dissociation constant, usually derived from enzyme kinetics or from competition with a known ligand. A high value points to weaker binding. The term melting point denotes the temperature of the solid-liquid transition.

Counter-ions that a name gives are not always drawn. Some results are limits rather than exact numbers.

The target of the first series is T1, human adenosine A2A receptors expressed in HEK-293 cells (Homo sapiens, UniProt P29274).
T1 construct: expressed in transfected cells; host or cells: HEK-293 cells
T1 sequence (P29274 whole entry): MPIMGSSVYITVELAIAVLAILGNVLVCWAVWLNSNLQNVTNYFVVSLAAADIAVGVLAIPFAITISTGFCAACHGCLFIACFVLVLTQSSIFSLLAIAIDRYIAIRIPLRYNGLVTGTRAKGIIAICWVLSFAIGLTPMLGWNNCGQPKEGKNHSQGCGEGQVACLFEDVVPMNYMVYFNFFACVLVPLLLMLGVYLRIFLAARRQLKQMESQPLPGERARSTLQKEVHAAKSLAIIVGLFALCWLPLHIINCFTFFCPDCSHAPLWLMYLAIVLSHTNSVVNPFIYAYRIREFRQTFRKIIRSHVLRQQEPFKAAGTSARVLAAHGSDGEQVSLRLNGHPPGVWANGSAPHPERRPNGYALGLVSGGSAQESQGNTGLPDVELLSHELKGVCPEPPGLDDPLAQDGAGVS
Nature of the series: Binding affinities at hA2A receptors, displacement of [3H]-CGS 21680. On the technique in general: Loss of bound radioactivity is the signal in a displacement assay; it reports binding, not function.
In the case of `CN(C)c1nc(C(=O)c2cccs2)c2scc(-c3ccco3)c2n1` [Example 79, 2-Dimethylamino-7-(2-furyl)thieno[3,2-d]pyrimidin-4-yl 2-thienylmethanone], the Ki stood at 858 nM.
As to “α-(3-Thienyl-2-trifluoromethylthieno[3,2- d]pyrimidine-4-acetonitrile [Example 17]”, the Ki is 895 nM.
`C[C@@H](O)CNc1nc(C(=O)c2cccs2)c2sccc2n1` [Example 103, (2R)-2-(2-Hydroxypropylamino)thieno[3,2-d]pyrimidin-4-yl 2-thienylmethanone] displayed a Ki of 6 nM.
Same read-out and setting: in the case of `CCCc1nc(C(O)c2cccs2)c2sccc2n1` (stereo not drawn) [Example 67, 2-n-Propyl-α-(2-thienyl)thieno[3,2-d]pyrimidine-4-methanol] it was 469 nM; in that of `CNc1nc(C(=O)c2cccs2)c2sccc2n1` [Example 58, 2-Methylaminothieno[3,2-d]pyrimidin-4-yl thienylmethanone], 15 nM; in that of “α-(2-Pyridyl-2-trifluoromethylthieno[3,2- d]pyrimidine-4-acetonitrile [Example 18]”, 346 nM.
The same measure, in the same setting: in the case of `C[C@H](CO)Nc1nc(C(=O)c2cccs2)c2sccc2n1` [Example 102, (2R)-2-(1-Hydroxy-2-propylamino)thieno[3,2-d]pyrimidin-4-yl 2-thienylmethanone] it was 2 nM; in that of `CC(C)CC(=O)NCCNc1nc(C(=O)c2cccs2)c2sccc2n1` [Example 150, 3-Methyl-N-(2-(4-(2-thienylcarbonyl)thieno[3,2-d]pyrimidin-2-yl)aminoethyl)butanamide], 4 nM; in that of `O=C(c1cccs1)c1nc(NCCCn2ccnc2)nc2ccsc12` [Example 104, 2-(3-(1H-Imidazol-1-yl)propylamino)thieno[3,2-d]pyrimidin-4-yl 2-thienylmethanone], 2 nM.
On the same count and under the same terms, the same measure for `CN1CCN(c2nc(C(=O)c3cccs3)c3sccc3n2)CC1` [Example 83, 2-(4-Methylpiperazinyl)thieno[3,2-d]pyrimidin-4-yl 2-thienylmethanone]: 863 nM.
The molecule `CC(CO)Nc1nc(C(=O)c2cccs2)c2sccc2n1` (racemic) [Example 89, (2RS)-2-(1-Hydroxy-2-propylamino)thieno[3,2-d]pyrimidin-4-yl 2-thienylmethanone] had a Ki of 3 nM.
`O=C(c1cccs1)c1nc(NCC(O)CO)nc2ccsc12` (racemic) [Example 93, (2RS)-2-(2,3-Dihydroxypropylamino)thieno[3,2-d]pyrimidin-4-yl 2-thienylmethanone] came in with a Ki of 7 nM.
Still for that read-out and setting: in the case of `O=C(c1cccs1)c1nc(NCCc2cnc[nH]2)nc2ccsc12` [Example 144, 2-(2-(1H-Imidazol-4-yl)ethylamino)thieno[3,2-d]pyrimdin-4-yl 2-thienylmethanone] it was 5 nM; in that of `C[C@@H](CO)Nc1nc(C(=O)c2cccs2)c2sccc2n1` [Example 101, (2S)-2-(1-Hydroxy-2-propylamino)thieno[3,2-d]pyrimidin-4-yl 2-thienylmethanone], 7 nM; in that of `O=C(NCCNc1nc(C(=O)c2cccs2)c2sccc2n1)OCCCl` [Example 158, 2-Chloroethyl (2-(4-(2-thienylcarbonyl)thieno[3,2-d]pyrimidin-2-yl)aminoethyl)carbamate], 6 nM.
The same measure, in the same setting: in the case of `CN(CCO)c1nc(C(=O)c2cccs2)c2sccc2n1` [Example 82, 2-(N-(2-Hydroxyethyl)-N-methylamino)thieno[3,2-d]pyrimidin-4-yl 2-thienylmethanone] it was 29 nM; in that of `NCCNc1nc(C(=O)c2cccs2)c2sccc2n1` [Example 55, 2-(2-Aminoethylamino)thieno[3,2-d]pyrimidin-4-yl 2-thienylmethanone dihydrochloride], 78 nM; in that of `CN(C)CCNc1nc(C(=O)c2cccs2)c2sccc2n1` [Example 66, 2-(2-Dimethylaminoethylamino)thieno[3,2-d]pyrimidin-4-yl 2-thienylmethanone dihydrochloride], 218 nM.
Still for that read-out and setting: the same measure for `C=CCNC(=O)NCCNc1nc(C(=O)c2cccs2)c2sccc2n1` [Example 159, N-Allyl-N′-(2-(4-(2-thienylcarbonyl)thieno[3,2-d]pyrimidin-2-yl)aminoethyl)urea]: 8 nM; for `CC(C)(C)OC(=O)N1CCN(c2nc(C(=O)c3cccs3)c3sccc3n2)CC1` [Example 84, Tert-butyl 4-(4-(2-thienylcarbonyl)thieno[3,2-d]pyrimidin-2-yl)piperazinecarboxylate]: 392 nM; for `COC(=O)NCCNc1nc(C(=O)c2cccs2)c2sccc2n1` [Example 155, Methyl (2-(4-(2-thienylcarbonyl)thieno[3,2-d]pyrimidin-2-yl)aminoethyl)carbamate]: 4 nM.
Take `O=C(c1cccs1)c1nc(NCCNC(=O)C2CCCCC2)nc2ccsc12` [Example 151, N-(2-(4-(2-Thienylcarbonyl)thieno[3,2-d]pyrimidin-2-yl)aminoethyl)cyclohexylcarboxamide]: the Ki was 7 nM.

Tested on in a further series: not given
Experiment: not given
As to `CN(C)CCNc1nc(C(=O)c2cccs2)c2sccc2n1` (as salt: hydrochloride) [Example 66, 2-(2-Dimethylaminoethylamino)thieno[3,2-d]pyrimidin-4-yl 2-thienylmethanone dihydrochloride], the melting point was > 150 °C (dec.).
The same measure, in the same setting: in the case of `Cc1c(C(=O)c2nc(C(F)(F)F)nc3ccsc23)sc2ccccc12` [Example 62, 3-Methylbenzothiophene-2-yl 2-trifluoromethylthieno[3,2-d]pyrimidin-4-ylmethanone] it was 262 to 263 °C; in that of `COC(=O)CNc1nc(C(=O)c2cccs2)c2sccc2n1` [Example 123, Methyl (4-(2-thienylcarbonyl)thieno[3,2-d]pyrimidin-2-ylamino)acetate], 144.6 to 145.2 °C.
Take `CN(C)CC(=O)Nc1nc(C(=O)c2cccs2)c2sccc2n1` (as salt: hydrochloride) [Example 169, 2-Dimethylamino-N-(4-(2-thienylcarbonyl)thieno[3,2-d]pyrimidin-2-yl)acetamide hydrochloride]: the melting point came to 151 °C.
For `CC(=O)NNc1nc(C(=O)c2cccs2)c2sccc2n1` [Example 130, Acetic acid 2-(4-(2-thienylcarbonyl)thieno[3,2-d]pyrimidin-2-yl)hydrazide], the melting point was 258.3 to 259 °C.
Same read-out and setting: in the case of `COC(=O)c1nc(C(=O)c2cccs2)c2sccc2n1` [Example 126, Methyl 4-(2-thienylcarbonyl)thieno[3,2-d]pyrimidin-2-carboxylate] it was 232.8 to 233 °C; in that of `CN(C)c1nc(C(=O)c2ccco2)c2sccc2n1` [Example 105, 2-Dimethylaminothieno[3,2-d]pyrimidin-4-yl 2-furylmethanone], 210 to 212 °C; in that of `COC(=O)[C@@H]1CCCN1c1nc(C(=O)c2cccs2)c2sccc2n1` [Example 115, (2S)-N-(4-(2-Thienylcarbonyl)thieno[3,2-d]pyrimidin-2-yl)proline methyl ester], 155.9 to 156.3 °C.
Consider `Cc1ccsc1C(=O)c1nc(N(C)C)nc2ccsc12` [Example 117, 2-Dimethylaminothieno[3,2-d]pyrimidin-4-yl 3-methyl-2-thienylmethanone], for which the melting point lay in the range of 165.1 to 165.7 °C.
On the same count and under the same terms, the same measure for `Cc1nc(C(O)c2cccs2)c2sccc2n1` (stereo not drawn) [Example 53, 2-Methyl-α-(2-thienyl)thieno[3,2-d]pyrimidine-4-methanol]: 144 to 146 °C.
Regarding `CN(C)C(=O)c1nc(C(=O)c2cccs2)c2sccc2n1` [Example 136, N,N-Dimethyl-4-(2-thienylcarbonyl)thieno[3,2-d]pyrimidin-2-carboxamide], the melting point lay in the range of 173.1 to 174 °C.
`OC(c1cccs1)c1nc(C(F)(F)F)nc2ccsc12` (stereo not drawn) [Example 41, α-(2-Thienyl)-2-trifluoromethylthieno[3,2-d]pyrimidine-4-methanol] gave a melting point of 157 to 158 °C.
Same read-out and setting: in the case of `O=C(c1cccnc1)c1nc(NCCO)nc2ccsc12` [Example 106, 2-(2-Hydroxyethylamino)thieno[3,2-d]pyrimidin-4-yl 3-pyridylmethanone] it was 161 to 163 °C; in that of `C=CCNC(=O)NNc1nc(C(=O)c2cccs2)c2sccc2n1` [Example 131, N-Allyl-2-(4-(2-thienylcarbonyl)thieno[3,2-d]pyrimidin-2-yl)hydrazinecarboxamide], 252.8 to 253.3 °C; in that of `Cc1ccsc1C(=O)c1nc(N2CCC[C@@H]2CO)nc2ccsc12` [Example 129, (2R)-2-(2-Hydroxymethylpyrrolidin-1-yl)thieno[3,2-d]pyrimidin-4-yl 3-methyl-2-thienylmethanone], 96.2 to 96.9 °C.
`Cc1ccsc1C(=O)c1nc(NCCCn2ccnc2)nc2ccsc12` [Example 132, 2-(3-(1H-imidazol-1-yl)propylamino)thieno[3,2-d]pyrimidin-4-yl 3-methyl-2-thienylmethanone] had a melting point of 138.1 to 138.7 °C.
On the same count and under the same terms, the same measure for `Cc1ccc(C(=O)c2nc(C(F)(F)F)nc3ccsc23)s1`: 161 to 163 °C; for `O=C(c1cc(Cl)cc(Cl)c1)c1nc(C(F)(F)F)nc2ccsc12` [Example 10, 3,5-Dichlorophenyl 2-trifluoromethylthieno[3,2-d]pyrimidin-4-ylmethanone]: 147 to 149 °C.
As to `O=C(c1cccc(Cl)c1)c1nc(C(F)(F)F)nc2ccsc12` [Example 9, 3-Chlorophenyl 2-trifluoromethylthieno[3,2-d]pyrimidin-4-ylmethanone], the melting point was in the range of 128 to 130 °C.
Same read-out and setting: the same measure for `Cc1csc2c(C(=O)c3cccs3)nc(Cl)nc12` [Example 24, 2-Chloro-7-methylthieno[3,2-d]pyrimidin-4-yl 2-thienylmethanone]: 188 to 190 °C.
Turning to `NC(=O)CNc1nc(C(=O)c2cccs2)c2sccc2n1` [Example 125, (4-(2-Thienylcarbonyl)thieno[3,2-d]pyrimidin-2-ylamino)acetamide], the melting point was in the range of 232.1 to 233.7 °C.
